Reference: patent US10294202B2, “Pyrrolidinones as herbicides” (FMC Corporation, priority 2013, dated 2019)

Key:
watergrass, late = assay: Test F flood (paddy) test; format: in vivo, Echinochloa oryzicola; conditions: 21 d, scale 0-100
Description: Three plastic pots (ca. 16-cm diameter) per rate were partially filled with sterilized Tama silt loam soil comprising a 35:50:15 ratio of sand, silt and clay and 2.6% organic matter. Separate plantings for each of the three pots were as follows. Seeds from the U.S. of monochoria (Monochoria vaginalis), sedge, umbrella (small-flower umbrella sedge, Cyperus difformis), bulrush, […] bulrush, Scirpus juncoides), and […] (purple […] coccinea), were planted into one 16-cm pot for each rate. Seeds from the U.S. of flatsedge, rice (rice flatsedge, Cyperus iria), sprangletop, Brdd. (bearded sprangletop, Leptochloa fascicularis), one stand of 9 or 10 water seeded rice seedlings (Rice, W.S. Jap, Oryza sativa cv. 'Japonica-[…]' or Rice, W.S. Ind, 'Indica'), and two stands of 3 or 4 seedlings of rice, transplanted (transplanted rice, Oryza sativa cv. 'Japonica-[…]') were planted into one 16-cm pot for each rate. Seeds from the U.S. of barnyardgrass (Echinochloa crus-galli), […] (common […], Alisma plantago-aquatica), and watergrass, late (late watergrass, Echinochloa oryzicola) were planted into one 16-cm pot for each rate. Plantings were sequential so that crop and weed species were at the 2.0 to 2.5-leaf stage at time of treatment. Potted plants were grown in a greenhouse with day/night temperature settings of 30/27° C., and supplemental balanced lighting was provided to maintain a 16-h photoperiod. Test pots were maintained in the greenhouse until test completion. At time of treatment, test pots were flooded to 3 cm above the soil surface, treated by application of test compounds directly to the paddy water, and then maintained at that water depth for the duration of the test. Effects of treatments on rice and weeds were visually evaluated by comparison to untreated controls after 21 d. Plant response ratings, summarized in Table F, are based on a scale of 0 to 100 where 0 is no effect and 100 is complete control. A dash (-) response means no test result.

radish, wild = assay: Test D pre-/postemergence herbicide test; format: in vivo, Raphanus raphanistrum; conditions: for Plant response rating: Postemergence, Radish, Wild, scale 0 to 100; for Plant response rating, Radish, Wild: Preemergence, scale 0 to 100 (0 no effect, 100 complete control)
Description: (§1) Seeds of plant species selected from bluegrass (annual bluegrass, Poa annua), blackgrass (Alopecurus myosuroides), canarygrass (littleseed canarygrass, Phalaris minor), chickweed (common chickweed, Stellaria media), galium (catchweed bedstraw, Galium aparine), bromegrass, downy (downy bromegrass, Bromus tectorum), field poppy (Papaver rhoeas), field violet (Viola arvensis), foxtail, green (green foxtail, Setaria viridis), deadnettle (henbit deadnettle, Lamium amplexicaule), ryegrass, Italian (Italian ryegrass, Lolium multiflorum), kochia (Kochia scoparia), lambsquarters (Chenopodium album), oilseed rape (Brassica napus), pigweed (Amaranthus retroflexus), chamomile (scentless chamomile, Matricaria inodora), Russian thistle (Salsola kali), speedwell (bird's-eye speedwell, Veronica persica), barley, spring (spring barley, Hordeum vulgare), wheat, spring (spring wheat, Triticum aestivum), buckwheat, wild (wild buckwheat, Polygonum convolvulus), mustard, wild (wild mustard, Sinapis arvensis), oat, wild (wild oat, Avena fatua), radish, wild (wild radish, Raphanus raphanistrum), […]), barley, winter (winter barley, Hordeum vulgare), and wheat, winter (winter wheat, Triticum aestivum) were planted into a silt loam soil and treated preemergence with test chemicals formulated in a non-phytotoxic solvent mixture which included a surfactant. At the same time, these species were planted in pots containing Redi-Earth® planting medium (Scotts Company, 14111 Scottslawn Road, Marysville, Ohio 43041) comprising spaghnum peat moss, vermiculite, wetting agent and starter nutrients and treated with postemergence applications of the test chemicals formulated in the same manner. Plants ranged in height from 2 to 18 cm (1- to 4-leaf stage). Treated plants and controls were maintained in a controlled growth environment for 7 to 21 days after which time all species were compared to controls and visually evaluated. Plant response ratings, summarized in Table D, are based on a scale of 0 to 100 where 0 is no effect and 100 is complete control. A dash (-) response means no test result.

windgrass = assay: Test D pre-/postemergence herbicide test; format: in vivo, Apera spica-venti; conditions: for Plant response rating: Postemergence, Windgrass, scale 0 to 100; for Plant response rating, Windgrass: Preemergence, scale 0 to 100 (0 no effect, 100 complete control)
Description: as §1

velvetleaf = assay: Test E preemergence herbicide test; format: in vivo, Abutilon theophrasti; parameters: key: 0 = no effect, 100 = complete control
Description: (§2) Seeds of plant species selected from corn (Zea mays), soybean (Glycine max), velvetleaf (Abutilon theophrasti), lambsquarters (Chenopodium album), wild poinsettia (Euphorbia heterophylla), pigweed, palmer (palmer pigweed, Amaranthus palmeri), waterhemp (common waterhemp, Amaranthus rudis), surinam grass (Brachiaria decumbens), crabgrass, large (large crabgrass, Digitaria sanguinalis), crabgrass, Brazil (Brazilian crabgrass, Digitaria horizontalis), panicum, fall (fall panicum, Panicum dichotomiflorum), foxtail, giant (giant foxtail, Setaria faberii), foxtail, green (green foxtail, Setaria viridis), goosegrass (Eleusine indica), johnsongrass (Sorghum halepense), ragweed (common ragweed, Ambrosia elatior), barnyardgrass (Echinochloa crus-galli), sandbur (southern sandbur, Cenchrus echinatus), arrowleaf […] rhombifolia), ryegrass, Italian (Italian ryegrass, Lolium multiflorum), dayflower, VA (Virginia dayflower, Commelina virginica), field bindweed (Convolvulus arvensis), morningglory (Ipomoea coccinea), nightshade (eastern black nightshade, Solanum ptycanthum), kochia (Kochia scoparia), nutsedge, yellow (yellow nutsedge, Cyperus esculentus), cocklebur (common cocklebur, Xanthium strumarium), smartweed (ladysthumb smartweed, Polygonum Persicaria) and beggarticks (hairy beggarticks, Bidens pilosa), were planted into a silt loam soil and treated preemergence with test chemicals formulated in a non-phytotoxic solvent mixture which included a surfactant. Treated plants and controls were maintained in a greenhouse for 21 days, after which time all species were compared to controls and visually evaluated. Plant response ratings, summarized in Table E, are based on a scale of 0 to 100 where 0 is no effect and 100 is complete control. A dash (-) response means no test result.

wild poinsettia = assay: Test E preemergence herbicide test; format: in vivo, Euphorbia heterophylla; parameters: key: 0 = no effect, 100 = complete control
Description: as §2

crabgrass, Brazil = assay: Test E preemergence herbicide test; format: in vivo, Digitaria horizontalis; parameters: key: 0 = no effect, 100 = complete control
Description: as §2

nightshade = assay: Test E preemergence herbicide test; format: in vivo, Solanum ptycanthum; parameters: key: 0 = no effect, 100 = complete control
Description: as §2

## O=C1NCC(c2cccc(C(F)(F)F)c2)C1C(=O)Nc1ccccc1F (racemic) [Compound 3]
watergrass, late; 250 g ai/ha
  Plant response rating, Watergrass, Late: 80
watergrass, late; 500 g ai/ha
  Plant response rating, Watergrass, Late: 85

## O=C1NCC(c2ccc(F)c(F)c2)C1C(=O)Nc1cccc(F)c1 (racemic) [Compound 12]
radish, wild; 16 g ai/ha
  Plant response rating: 0
  Plant response rating, Radish, Wild: 0
radish, wild; 31 g ai/ha
  Plant response rating: 0
radish, wild; 62 g ai/ha
  Plant response rating: 20
radish, wild; 125 g ai/ha
  Plant response rating: 25
radish, wild; 250 g ai/ha
  Plant response rating: 25
windgrass; 16 g ai/ha
  Plant response rating: 0
  Plant response rating, Windgrass: 0
windgrass; 31 g ai/ha
  Plant response rating: 0
  Plant response rating, Windgrass: 0
windgrass; 62 g ai/ha
  Plant response rating: 0
  Plant response rating, Windgrass: 0
windgrass; 125 g ai/ha
  Plant response rating: 0
  Plant response rating, Windgrass: 0
windgrass; 250 g ai/ha
  Plant response rating: 5
  Plant response rating, Windgrass: 0

## O=C1NCC(c2ccc(F)cc2)C1C(=O)Nc1ccccc1F (racemic) [Compound 16]
velvetleaf; 16 g ai/ha
  Plant response rating, Velvetleaf: 0
velvetleaf; 31 g ai/ha
  Plant response rating, Velvetleaf: 0
velvetleaf; 62 g ai/ha
  Plant response rating, Velvetleaf: 0
velvetleaf; 125 g ai/ha
  Plant response rating, Velvetleaf: 0
velvetleaf; 250 g ai/ha
  Plant response rating, Velvetleaf: 0
Wild poinsettia; 16 g ai/ha
  Plant response rating, Poinsettia, Wild: 0
Wild poinsettia; 31 g ai/ha
  Plant response rating, Poinsettia, Wild: 0
Wild poinsettia; 62 g ai/ha
  Plant response rating, Poinsettia, Wild: 0
Wild poinsettia; 125 g ai/ha
  Plant response rating, Poinsettia, Wild: 0
Wild poinsettia; 250 g ai/ha
  Plant response rating, Poinsettia, Wild: 0
crabgrass, Brazil; 16 g ai/ha
  Plant response rating, Crabgrass, Brazil: 25
crabgrass, Brazil; 31 g ai/ha
  Plant response rating, Crabgrass, Brazil: 25
crabgrass, Brazil; 62 g ai/ha
  Plant response rating, Crabgrass, Brazil: 65
crabgrass, Brazil; 125 g ai/ha
  Plant response rating, Crabgrass, Brazil: 80
crabgrass, Brazil; 250 g ai/ha
  Plant response rating, Crabgrass, Brazil: 98
nightshade; 16 g ai/ha
  Plant response rating, Nightshade: 0
nightshade; 31 g ai/ha
  Plant response rating, Nightshade: 0
nightshade; 62 g ai/ha
  Plant response rating, Nightshade: 0
nightshade; 125 g ai/ha
  Plant response rating, Nightshade: 0
nightshade; 250 g ai/ha
  Plant response rating, Nightshade: 0

## O=C1NCC(c2cc(F)c(F)c(F)c2)C1C(=O)Nc1ccccc1C(F)(F)F (racemic) [Compound 33]
radish, wild; 16 g ai/ha
  Plant response rating: 0
radish, wild; 31 g ai/ha
  Plant response rating: 0
radish, wild; 62 g ai/ha
  Plant response rating: 0
radish, wild; 125 g ai/ha
  Plant response rating: 0
radish, wild; 250 g ai/ha
  Plant response rating: 0
windgrass; 16 g ai/ha
  Plant response rating: 0
windgrass; 31 g ai/ha
  Plant response rating: 0
windgrass; 62 g ai/ha
  Plant response rating: 0
windgrass; 125 g ai/ha
  Plant response rating: 0
windgrass; 250 g ai/ha
  Plant response rating: 0

## O=C1NCC(c2cc(F)c(F)c(F)c2)C1C(=O)Nc1ccccc1F (racemic) [Compound 34]
radish, wild; 16 g ai/ha
  Plant response rating: 0
radish, wild; 31 g ai/ha
  Plant response rating: 0
radish, wild; 62 g ai/ha
  Plant response rating: 0
radish, wild; 125 g ai/ha
  Plant response rating: 0
radish, wild; 250 g ai/ha
  Plant response rating: 0
windgrass; 16 g ai/ha
  Plant response rating: 0
windgrass; 31 g ai/ha
  Plant response rating: 0
windgrass; 62 g ai/ha
  Plant response rating: 0
windgrass; 125 g ai/ha
  Plant response rating: 0
windgrass; 250 g ai/ha
  Plant response rating: 0

## O=C1NCC(c2cccc(C(F)(F)F)c2)C1C(=O)Nc1ccc(F)cc1F (racemic) [Compound 207]
radish, wild; 31 g ai/ha
  Plant response rating, Radish, Wild: 15
radish, wild; 62 g ai/ha
  Plant response rating, Radish, Wild: 10
radish, wild; 125 g ai/ha
  Plant response rating, Radish, Wild: 15
radish, wild; 250 g ai/ha
  Plant response rating, Radish, Wild: 15
windgrass; 31 g ai/ha
  Plant response rating, Windgrass: 5
windgrass; 62 g ai/ha
  Plant response rating, Windgrass: 20
windgrass; 125 g ai/ha
  Plant response rating, Windgrass: 20
windgrass; 250 g ai/ha
  Plant response rating, Windgrass: 65
watergrass, late; 125 g ai/ha
  Plant response rating, Watergrass, Late: 65
watergrass, late; 250 g ai/ha
  Plant response rating, Watergrass, Late: 85
watergrass, late; 500 g ai/ha
  Plant response rating, Watergrass, Late: 90

## O=C1NCC(c2ccc(C(F)(F)F)c(F)c2)C1C(=O)Nc1cccc(F)c1F (racemic) [Compound 247]
watergrass, late; 125 g ai/ha
  Plant response rating, Watergrass, Late: 65
watergrass, late; 250 g ai/ha
  Plant response rating, Watergrass, Late: 65
watergrass, late; 500 g ai/ha
  Plant response rating, Watergrass, Late: 70
watergrass, late; 1000 g ai/ha
  Plant response rating, Watergrass, Late: 85
watergrass, late; 2000 g ai/ha
  Plant response rating, Watergrass, Late: 90

## O=C1NCC(c2cccc(Br)c2)C1C(=O)Nc1ccccc1F (stereo not drawn) [Compound 66]
velvetleaf; 16 g ai/ha
  Plant response rating, Velvetleaf: 0
velvetleaf; 31 g ai/ha
  Plant response rating, Velvetleaf: 0
velvetleaf; 62 g ai/ha
  Plant response rating, Velvetleaf: 0
velvetleaf; 125 g ai/ha
  Plant response rating, Velvetleaf: 0
velvetleaf; 250 g ai/ha
  Plant response rating, Velvetleaf: 0
Wild poinsettia; 16 g ai/ha
  Plant response rating, Poinsettia, Wild: 0
Wild poinsettia; 31 g ai/ha
  Plant response rating, Poinsettia, Wild: 0
Wild poinsettia; 62 g ai/ha
  Plant response rating, Poinsettia, Wild: 0
Wild poinsettia; 125 g ai/ha
  Plant response rating, Poinsettia, Wild: 0
Wild poinsettia; 250 g ai/ha
  Plant response rating, Poinsettia, Wild: 20
crabgrass, Brazil; 16 g ai/ha
  Plant response rating, Crabgrass, Brazil: 85
crabgrass, Brazil; 31 g ai/ha
  Plant response rating, Crabgrass, Brazil: 85
crabgrass, Brazil; 62 g ai/ha
  Plant response rating, Crabgrass, Brazil: 95
crabgrass, Brazil; 125 g ai/ha
  Plant response rating, Crabgrass, Brazil: 98
crabgrass, Brazil; 250 g ai/ha
  Plant response rating, Crabgrass, Brazil: 98
nightshade; 16 g ai/ha
  Plant response rating, Nightshade: 0
nightshade; 31 g ai/ha
  Plant response rating, Nightshade: 0
nightshade; 62 g ai/ha
  Plant response rating, Nightshade: 0
nightshade; 250 g ai/ha
  Plant response rating, Nightshade: 0

## O=C1NCC(c2cccc(C(F)(F)F)c2)C1C(=O)Nc1cccc(F)c1F (stereo not drawn) [Compound 241]
radish, wild; 31 g ai/ha
  Plant response rating, Radish, Wild: 0
radish, wild; 62 g ai/ha
  Plant response rating, Radish, Wild: 0
radish, wild; 125 g ai/ha
  Plant response rating, Radish, Wild: 0
radish, wild; 250 g ai/ha
  Plant response rating, Radish, Wild: 0
windgrass; 31 g ai/ha
  Plant response rating, Windgrass: 65
windgrass; 62 g ai/ha
  Plant response rating, Windgrass: 90
windgrass; 125 g ai/ha
  Plant response rating, Windgrass: 95
windgrass; 250 g ai/ha
  Plant response rating, Windgrass: 98

## CN1CC(c2ccc(F)cc2)C(C(=O)Nc2cccc(F)c2F)C1=O (stereo not drawn) [Compound 271]
watergrass, late; 64 g ai/ha
  Plant response rating, Watergrass, Late: 45
watergrass, late; 125 g ai/ha
  Plant response rating, Watergrass, Late: 75
watergrass, late; 250 g ai/ha
  Plant response rating, Watergrass, Late: 100
watergrass, late; 500 g ai/ha
  Plant response rating, Watergrass, Late: 100
